From patent publication US20260201008A1, “SECRETIN-DERIVED GLP1R SELECTIVE AGONISTS” (GUBRA A/S, priority 2023, published 2026)
Like-named read-outs stand apart in the source and are kept apart here. Numbered stars: 1 amine (or outer) side, 2 acyl side, 3 side chain; on linkers, the order of the positions; unused ones are H or OH. Square brackets hold non-standard residues; d marks the D form. Side chains are listed from the residue outwards. Peptide text beside a SMILES is read from it. * marks the point of attachment. C20 diacid = O=C(O)CCCCCCCCCCCCCCCCCCC(=O)*; γGlu = O=C(O)[C@H](CCC(=O)[*:2])N[*:1]; AEEA = NCCOCCOCC(=O)O; Aib = CC(C)(N)C(=O)O

Tests used:
[1] = Turbidity of crude library peptides (absorbance at 600 nm); type: physicochemical; conditions: Physical stability of peptides
How it was run: (§1)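 Values reflect mean ThT emission (ex 450, em 480 nm) over 72 h at 40° C, read every 10 min after 5 min shaking at 700 rpm, plus a single initial absorbance at 600 nm for turbidity. Peptides were at 267 μM, pH 4.0 acetate or pH 7.0 phosphate (50 mM), with 4 μM ThT.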

[2] = Fibril formation of crude library peptides (Thioflavin T); type: physicochemical; parameters: key: average ThT fluorescence emission at 480 nm (ex 450 nm), raw units; conditions: Physical stability of peptides
How it was run: as §1

GLP1R = GLP1R (Homo sapiens, UniProt P43220); assay: hGLP1R potency, cAMP accumulation in CHO-K1 cells stably overexpressing hGLP1R; type: cell-based; parameters: host or cells: CHO-K1; conditions: for Selectivity: SCTR EC50/GLP1R EC50 ratio; for EC50: cAMP accumulation, CHO-K1 cells overexpressing hGLP1R
How it was run: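 Potency reflects cAMP accumulation measured by time-resolved fluorescence energy transfer after a 30 min room-temperature stimulation in IBMX-containing (0.5 mM) DPBS with casein. Purified peptides were tested in duplicate over eleven threefold dilutions, and EC50 was obtained from sigmoid concentration-response fitting.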

SCTR = SCTR (Homo sapiens, UniProt P47872); assay: hSCTR potency, cAMP accumulation in CHO-K1 cells stably overexpressing hSCTR; type: cell-based; parameters: alternatively Euroscreen ES-712-AF; FAST-0161L; host or cells: CHO-K1; conditions: cAMP accumulation, CHO-K1 cells overexpressing hSCTR
How it was run: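 Potency reflects cAMP accumulation after 30 min agonist exposure at room temperature in hSCTR-expressing CHO-K1 cells, with 0.5 mM IBMX present to block phosphodiesterase. EC50 was derived by nonlinear regression.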

[3] = read-out: pEC50 hGLPR1 (converted)
[4] = read-out: pEC50 hSCTR (converted)

Sequence of GLP1R (P43220 24-463): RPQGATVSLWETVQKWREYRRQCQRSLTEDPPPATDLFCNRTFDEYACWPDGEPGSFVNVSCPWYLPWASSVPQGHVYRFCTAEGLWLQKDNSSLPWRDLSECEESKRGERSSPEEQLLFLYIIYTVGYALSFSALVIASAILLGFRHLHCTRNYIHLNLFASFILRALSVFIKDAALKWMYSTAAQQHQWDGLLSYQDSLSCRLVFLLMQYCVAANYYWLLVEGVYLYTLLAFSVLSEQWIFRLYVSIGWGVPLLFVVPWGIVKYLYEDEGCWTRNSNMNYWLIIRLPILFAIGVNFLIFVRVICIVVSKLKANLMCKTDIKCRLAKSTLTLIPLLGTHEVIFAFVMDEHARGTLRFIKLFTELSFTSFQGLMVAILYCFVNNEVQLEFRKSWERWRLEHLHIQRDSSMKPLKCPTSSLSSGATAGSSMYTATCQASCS
Sequence of SCTR (P47872 23-440): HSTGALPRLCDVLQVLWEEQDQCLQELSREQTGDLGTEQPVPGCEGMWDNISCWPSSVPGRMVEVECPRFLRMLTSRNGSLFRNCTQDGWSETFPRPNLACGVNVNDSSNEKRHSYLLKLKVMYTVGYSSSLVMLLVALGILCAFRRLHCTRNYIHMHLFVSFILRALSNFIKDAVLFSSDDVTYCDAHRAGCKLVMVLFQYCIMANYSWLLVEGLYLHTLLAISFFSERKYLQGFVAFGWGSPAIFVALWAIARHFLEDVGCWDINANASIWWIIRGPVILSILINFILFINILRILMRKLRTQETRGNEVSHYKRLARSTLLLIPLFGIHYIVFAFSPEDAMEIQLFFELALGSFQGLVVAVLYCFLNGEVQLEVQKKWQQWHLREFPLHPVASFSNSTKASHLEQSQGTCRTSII

Turbidity (pH 7) [1] | Fibril formation [2] | Selectivity (GLP1R) | EC50 (GLP1R; [3]) [nM] | EC50 (SCTR; [4]) [nM] | EC50 (GLP1R; read-out: hGLP1R pEC50 (converted)) [nM] | SCTR EC50/GLP1R EC50 ratio (GLP1R; selectivity for hGLP1R over hSCTR, cAMP accumulation in CHO-K1 cells) | EC50 (SCTR; read-out: hSCTR pEC50 (converted)) [nM] | Structure (SMILES)
0.08 | 231646 | 13611 | 0.0631 | 1000 |  |  |  | CC(C)C[C@H](NC(=O)[C@H](Cc1ccccc1)NC(=O)[C@H](CCCNC(=N)N)NC(=O)[C@H](CCC(N)=O)NC(=O)[C@H](CO)NC(=O)[C@H](C)NC(=O)[C@H](C)NC(=O)[C@@H](NC(=O)[C@H](CCC(=O)O)NC(=O)[C@H](CCCCNC(=O)COCCOCCNC(=O)COCCOCCNC(=O)CC[C@H](NC(=O)CCCCCCCCCCCCCCCCCCC(=O)O)C(=O)O)NC(=O)[C@H](CC(C)C)NC(=O)[C@H](CCCNC(=N)N)NC(=O)[C@H](CO)NC(=O)[C@@H](NC(=O)[C@H](CC(=O)O)NC(=O)[C@H](CO)NC(=O)[C@@H](NC(=O)[C@H](Cc1ccccc1)NC(=O)[C@@H](NC(=O)CNC(=O)[C@H](CCC(=O)O)NC(=O)C(C)(C)NC(=O)[C@@H](N)Cc1c[nH]cn1)[C@@H](C)O)[C@@H](C)O)C(C)C)[C@@H](C)O)C(=O)N[C@@H](CCC(=O)O)C(=O)N[C@@H](Cc1c[nH]cn1)C(=O)N[C@@H](CC(C)C)C(=O)N[C@H](C(N)=O)C(C)C [compound 71] (H-H[Aib]EGTFTSDVSRLK([AEEA-AEEA-γGlu-C20 diacid])ETAASQRFLEHLV-NH2)
0.12 | 1370 |  |  |  | 2.51 | 2086 | 5010 | CC[C@H](C)[C@H](NC(=O)[C@H](Cc1ccccc1)NC(=O)[C@H](CCCNC(=N)N)NC(=O)[C@H](CCC(N)=O)NC(=O)[C@H](CC(C)C)NC(=O)[C@H](C)NC(=O)[C@H](C)NC(=O)CNC(=O)[C@H](CCC(=O)O)NC(=O)[C@H](CC(C)C)NC(=O)[C@H](CC(C)C)NC(=O)[C@H](CCCNC(=N)N)NC(=O)[C@H](CO)NC(=O)[C@@H]1CCCN1C(=O)[C@H](CC(=O)O)NC(=O)[C@H](CO)NC(=O)[C@@H](NC(=O)[C@H](Cc1ccccc1)NC(=O)[C@@H](NC(=O)CNC(=O)[C@H](CCC(=O)O)NC(=O)C(C)(C)NC(=O)[C@@H](N)Cc1c[nH]cn1)[C@@H](C)O)[C@@H](C)O)C(=O)N[C@@H](CCC(N)=O)C(=O)N[C@@H](Cc1c[nH]c2ccccc12)C(=O)N[C@@H](CC(C)C)C(=O)N[C@H](C(N)=O)C(C)C [compound 124] (H-H[Aib]EGTFTSDPSRLLEGAALQRFIQWLV-NH2)
0.08 | 11936 | 74783 | 0.02 | 1580 |  |  |  | CC(C)C[C@H](NC(=O)[C@H](Cc1ccccc1)NC(=O)[C@H](CCCNC(=N)N)NC(=O)[C@H](CCC(N)=O)NC(=O)C(C)(C)NC(=O)[C@H](C)NC(=O)[C@H](C)NC(=O)[C@H](CCC(=O)O)NC(=O)[C@H](CCC(=O)O)NC(=O)[C@H](CCCCNC(=O)COCCOCCNC(=O)COCCOCCNC(=O)CC[C@H](NC(=O)CCCCCCCCCCCCCCCCCCC(=O)O)C(=O)O)NC(=O)[C@H](CC(C)C)NC(=O)[C@@H](NC(=O)[C@H](CO)NC(=O)[C@@H](NC(=O)[C@H](CC(=O)O)NC(=O)[C@H](CO)NC(=O)[C@@H](NC(=O)[C@H](Cc1ccccc1)NC(=O)[C@@H](NC(=O)CNC(=O)[C@H](CCC(=O)O)NC(=O)C(C)(C)NC(=O)[C@@H](N)Cc1c[nH]cn1)[C@@H](C)O)[C@@H](C)O)C(C)C)[C@@H](C)O)C(=O)N[C@@H](CCC(=O)O)C(=O)N[C@@H](Cc1c[nH]cn1)C(=O)N[C@@H](CC(C)C)C(=O)N[C@H](C(N)=O)C(C)C [compound 77] (H-H[Aib]EGTFTSDVSTLK([AEEA-AEEA-γGlu-C20 diacid])EEAA[Aib]QRFLEHLV-NH2)
